# Data reported in PubChem BioAssay AID328 (DTP/NCI, 2004).
# Several values for one entry are separate records, joined by “and”; a condition that tells them apart may be missing. Identical values can stand only once. Inconclusive results and toxic doses are left out. Positions of bridges follow the written chain, without caps; N, C: chain ends. Non-standard residues stand in square brackets, D forms with d. Residues, ends and D or L forms follow the SMILES beside them. NMeV = CN[CH](C(=O)O)C(C)C; Sar = CNCC(=O)O
# Tested on: BDF1 mice, P388 leukemia ip, median survival T/C
# Assay: NCI In Vivo Anticancer Drug Screen. Data for tumor model P388 Leukemia (intraperitoneal) in B6D2F1 (BDF1) mice
# Settings: endpoint: median survival time, higher = longer survival
# Outline: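 Reported as T/C, where T is the survival measurement in dosed animals and C the same measurement in vehicle controls.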
# [1] = dose: 12.5 mg/kg/injection, schedule: Q01DX009 (ip), vehicle: saline with Tween-80
# [2] = dose: 25.0 mg/kg/injection, schedule: Q01DX009 (ip), vehicle: saline with Tween-80
# [3] = dose: 50.0 mg/kg/injection, schedule: Q01DX009 (ip), vehicle: saline with Tween-80
# [4] = dose: 100.0 mg/kg/injection, schedule: Q04DX003 (ip), vehicle: saline
# [5] = dose: 200.0 mg/kg/injection, schedule: Q04DX003 (ip), vehicle: saline
# [6] = dose: 100.0 mg/kg/injection, schedule: Q01DX009 (ip), vehicle: saline
# [7] = dose: 100.0 mg/kg/injection, schedule: Q01DX009 (ip), vehicle: saline with Tween-80
# [8] = dose: 100.0 mg/kg/injection, schedule: Q04DX003 (ip), vehicle: saline with Tween-80
# [9] = dose: 200.0 mg/kg/injection, schedule: Q01DX009 (ip), vehicle: saline with Tween-80
# [10] = dose: 200.0 mg/kg/injection, schedule: Q04DX003 (ip), vehicle: saline with Tween-80
# [11] = dose: 400.0 mg/kg/injection, schedule: Q01DX009 (ip), vehicle: saline with Tween-80
# [12] = dose: 400.0 mg/kg/injection, schedule: Q04DX003 (ip), vehicle: saline with Tween-80
# [13] = dose: 25.0 mg/kg/injection, schedule: Q04DX003 (ip), vehicle: saline with Tween-80
compound,measurement,setting,value
CCOC(=O)/C=C(\C)Nc1cccc([N+](=O)[O-])c1,T/C,"dose: 25.0 mg/kg/injection, schedule: Q01DX009 (ip), vehicle: other",110 % of control
same,T/C,"dose: 50.0 mg/kg/injection, schedule: Q01DX009 (ip), vehicle: other",93 % of control
same,T/C,"dose: 100.0 mg/kg/injection, schedule: Q01DX009 (ip), vehicle: other",100 % of control
same,T/C,"dose: 200.0 mg/kg/injection, schedule: Q01DX009 (ip), vehicle: other",110 % of control
same,T/C,"dose: 400.0 mg/kg/injection, schedule: Q01DX009 (ip), vehicle: other",116 % of control
S=c1sc(-c2ccccc2)c[se]1,T/C,"dose: 25.0 mg/kg/injection, schedule: Q01DX009 (ip), vehicle: saline + Tween-80 + alcohol",107 % of control
same,T/C,"dose: 50.0 mg/kg/injection, schedule: Q01DX009 (ip), vehicle: saline + Tween-80 + alcohol",105 % of control
O=[N+]([O-])c1cccc2c1ccc[n+]2Cc1ccccc1,T/C,[1],112 % of control
same,T/C,[2],115 % of control
same,T/C,[3],122 % of control
CCCCCSc1nc(N)nc2nc[nH]c12,T/C,"dose: 100.0 mg/kg/injection, schedule: Q01DX009 (ip), vehicle: Klucel (hydroxypropylcellulose) (HPC)",118 % of control
same,T/C,"dose: 100.0 mg/kg/injection, schedule: Q04DX003 (ip), vehicle: other",100 % of control
same,T/C,"dose: 200.0 mg/kg/injection, schedule: Q01DX009 (ip), vehicle: Klucel (hydroxypropylcellulose) (HPC)",95 % of control
same,T/C,"dose: 200.0 mg/kg/injection, schedule: Q04DX003 (ip), vehicle: other",100 % of control
same,T/C,"dose: 400.0 mg/kg/injection, schedule: Q04DX003 (ip), vehicle: other",94 % of control
CC(C)(C)CC(C)(C)c1ccc(OCCOc2ccccc2NC(=O)CC(=O)c2cccc([N+](=O)[O-])c2)cc1,T/C,"dose: 100.0 mg/kg/injection, schedule: Q01DX001 (ip), vehicle: Klucel (hydroxypropylcellulose) (HPC)",95 % of control
same,T/C,"dose: 200.0 mg/kg/injection, schedule: Q01DX001 (ip), vehicle: Klucel (hydroxypropylcellulose) (HPC)",95 % of control
same,T/C,"dose: 400.0 mg/kg/injection, schedule: Q01DX001 (ip), vehicle: Klucel (hydroxypropylcellulose) (HPC)",95 % of control
O=C(O)C1(C(=O)O)CC2CC=CCC2C1 (stereo unspecified),T/C,[4],110 % of control
same,T/C,[5],120 % of control
C#CC(C)(C)OCC(O)CCl (stereo unspecified),T/C,"dose: 50.0 mg/kg/injection, schedule: Q01DX009 (ip), vehicle: saline",95 % of control
same,T/C,[6],100 % of control
same,T/C,[4],91 % of control
same,T/C,"dose: 200.0 mg/kg/injection, schedule: Q01DX009 (ip), vehicle: saline",91 % of control
same,T/C,[5],100 % of control
same,T/C,"dose: 400.0 mg/kg/injection, schedule: Q04DX003 (ip), vehicle: saline",112 % of control
Nc1ccccc1CCc1ccccc1N,T/C,[7],104 % of control
same,T/C,[8],95 % of control
same,T/C,[9],100 % of control
same,T/C,[10],95 % of control
same,T/C,[11],100 % of control
same,T/C,[12],108 % of control
CC(C)(Br)C(=O)c1ccc(Cl)s1,T/C,[3],101 % of control
same,T/C,[7],111 % of control
same,T/C,[8],109 % of control
same,T/C,[9],119 % of control
same,T/C,[10],115 % of control
same,T/C,[11],119 % of control
same,T/C,[12],107 % of control
Cc1cc2nc(Oc3ccccc3)nc(=O)n2c(C)n1,T/C,[1],109 % of control
same,T/C,[2],114 % of control
same,T/C,[3],97 % of control
CC(=O)Oc1cc(-c2ccccc2)c(OC(C)=O)cc1-c1ccccc1,T/C,"dose: 6.25 mg/kg/injection, schedule: Q01DX009 (ip), vehicle: water",109 % of control
same,T/C,"dose: 12.5 mg/kg/injection, schedule: Q01DX009 (ip), vehicle: water",95 % of control
same,T/C,"dose: 12.5 mg/kg/injection, schedule: Q04DX003 (ip), vehicle: water",89 % of control
same,T/C,"dose: 25.0 mg/kg/injection, schedule: Q01DX009 (ip), vehicle: water",93 % of control
same,T/C,"dose: 25.0 mg/kg/injection, schedule: Q04DX003 (ip), vehicle: water",89 % of control and 95 % of control
same,T/C,"dose: 50.0 mg/kg/injection, schedule: Q01DX009 (ip), vehicle: water",92 % of control
same,T/C,"dose: 50.0 mg/kg/injection, schedule: Q04DX003 (ip), vehicle: water",91 % of control and 98 % of control
same,T/C,"dose: 100.0 mg/kg/injection, schedule: Q01DX009 (ip), vehicle: water",94 % of control
same,T/C,"dose: 100.0 mg/kg/injection, schedule: Q04DX003 (ip), vehicle: water",89 % of control and 95 % of control
same,T/C,"dose: 200.0 mg/kg/injection, schedule: Q01DX009 (ip), vehicle: water",102 % of control
same,T/C,"dose: 300.0 mg/kg/injection, schedule: Q01DX009 (ip), vehicle: water",107 % of control
same,T/C,"dose: 400.0 mg/kg/injection, schedule: Q01DX009 (ip), vehicle: water",91 % of control
Cc1cc2ccccc2oc1=O,T/C,[13],100 % of control
same,T/C,"dose: 50.0 mg/kg/injection, schedule: Q04DX003 (ip), vehicle: saline with Tween-80",100 % of control
same,T/C,[8],100 % of control
O=C(c1ccccc1)C(Br)c1ccc([N+](=O)[O-])cc1 (stereo unspecified),T/C,"dose: 100.0 mg/kg/injection, schedule: Q04DX003 (ip), vehicle: Klucel (hydroxypropylcellulose) (HPC)",100 % of control
same,T/C,"dose: 200.0 mg/kg/injection, schedule: Q04DX003 (ip), vehicle: Klucel (hydroxypropylcellulose) (HPC)",90 % of control
same,T/C,"dose: 400.0 mg/kg/injection, schedule: Q04DX003 (ip), vehicle: Klucel (hydroxypropylcellulose) (HPC)",100 % of control
Cc1cc(N(CCOS(C)(=O)=O)CCOS(C)(=O)=O)ccc1C=O,T/C,"dose: 12.5 mg/kg/injection, schedule: Q04DX003 (ip), vehicle: saline with Tween-80",231 % of control
same,T/C,[13],120 % of control
CC(=O)Nc1cccc(N(CCOS(C)(=O)=O)CCOS(C)(=O)=O)c1,T/C,"dose: 13.0 mg/kg/injection, schedule: Q04DX003 (ip), vehicle: saline sonified",95 % of control
same,T/C,"dose: 20.0 mg/kg/injection, schedule: Q04DX003 (ip), vehicle: saline sonified",95 % of control
same,T/C,"dose: 30.0 mg/kg/injection, schedule: Q04DX003 (ip), vehicle: saline sonified",100 % of control
CC(C)C1NC(=O)C(N)C(C)OC(=O)C(C(C)C)N(C)C(=O)CN(C)C(=O)C2CCCN2C1=O (stereo unspecified) (tested in a mixture with another compound) (H-TVP[Sar][NMeV]; ester 1-C; configuration not given here),T/C,"dose: 0.05 mg/kg/injection, schedule: Q01DX009 (ip), vehicle: saline + alcohol",201 % of control
same,T/C,"dose: 0.1 mg/kg/injection, schedule: Q01DX009 (ip), vehicle: saline + alcohol",260 % of control
same,T/C,"dose: 0.2 mg/kg/injection, schedule: Q01DX009 (ip), vehicle: saline + alcohol",531 % of control
same,T/C,"dose: 0.3 mg/kg/injection, schedule: Q04DX003 (ip), vehicle: saline + alcohol",239 % of control
same,T/C,"dose: 0.4 mg/kg/injection, schedule: Q01DX009 (ip), vehicle: saline + alcohol",96 % of control
same,T/C,"dose: 0.6 mg/kg/injection, schedule: Q04DX003 (ip), vehicle: saline + alcohol",281 % of control and 187 % of control
same,T/C,"dose: 1.2 mg/kg/injection, schedule: Q04DX003 (ip), vehicle: saline + alcohol",107 % of control
CC1CN(C(=O)Nc2ccc(Cl)cc2)CC(C)O1 (stereo unspecified),T/C,"dose: 75.0 mg/kg/injection, schedule: Q01DX009 (ip), vehicle: Klucel (hydroxypropylcellulose) (HPC)",110 % of control
same,T/C,"dose: 150.0 mg/kg/injection, schedule: Q01DX009 (ip), vehicle: Klucel (hydroxypropylcellulose) (HPC)",110 % of control
same,T/C,"dose: 300.0 mg/kg/injection, schedule: Q01DX009 (ip), vehicle: Klucel (hydroxypropylcellulose) (HPC)",120 % of control
C/C=C/C[P+](C)(c1ccccc1)c1ccccc1,T/C,"dose: 0.2 mg/kg/injection, schedule: Q01DX009 (ip), vehicle: saline",104 % of control
same,T/C,"dose: 0.4 mg/kg/injection, schedule: Q01DX009 (ip), vehicle: saline",103 % of control
same,T/C,"dose: 0.8 mg/kg/injection, schedule: Q01DX009 (ip), vehicle: saline",104 % of control
OCC12CCCCC1CC1(CC2)OCCO1 (stereo unspecified),T/C,[6],92 % of control
same,T/C,[8],95 % of control
same,T/C,[10],90 % of control
same,T/C,"dose: 400.0 mg/kg/injection, schedule: Q01DX009 (ip), vehicle: saline",96 % of control
same,T/C,[12],90 % of control
NOCc1ccccc1CON,T/C,"dose: 37.5 mg/kg/injection, schedule: Q04DX003 (ip), vehicle: saline",108 % of control
same,T/C,"dose: 75.0 mg/kg/injection, schedule: Q04DX003 (ip), vehicle: saline",95 % of control
same,T/C,"dose: 150.0 mg/kg/injection, schedule: Q04DX003 (ip), vehicle: saline",100 % of control
